Experimental data published in patent US20180289666A1, “FLAVONOLIGNANS FOR TREATMENT OF AUTOIMMUNE INFLAMMATORY DISEASES” (Macau University of Science and Technology, priority 2017, published 2018).

Tests used:
[1] = tested on: IL-1β, TNF-α, IL-33, MMP-9, TIMP-1 and PGE2 in serum; experiment: Serum cytokine levels by ELISA in AIA rats; type: in vivo, Sprague-Dawley (SD) rats; settings: 42 days treatment, versus vehicle-treated AIA rats
Procedure: Disease severity and progression were evaluated by measurements of both hind paw volumes with a plethysmometer chamber (Yiyan technology, Jinan, China) and body weight with a 0.1 g precision balance (Sartorius AG, Göttingen, Germany) every two or three days after arthritis induction. For evaluation the arthritic scoring, the lesions of four paws of each rat (i.e., the arthritic signs) were graded by two separate investigators with a semi-quantitative scale: 0 (normal), 4-8 (mild changes), 8-12 (moderate changes), and 12-16 (severe changes) (van Eden W., et. al., J. E. Coligan, Editor. 2001, John Wiley: New York. p. 1-11). Erythrocyte sedimentation rate (ESR) was determined with ICSH (International Council for Standardization in Hematology) selected method with little modifications at day 42. Briefly, 120 μl of blood sample was taken directly and put into 30 μl of 0.109 mol/L sodium citrate, mixed well, and then transferred into a 1.0 mm×100 mm capillary tube (West China Medical University, ChengDu, China). The tubes were held obliquely at an angle of […] and the erythrocyte sedimentation rate was recorded at 15 min. The cytokines levels including IL-1β, TNF-α, IL-17, IL-33, MMP-9, TIMP-1 and PGE2 in serum were measured using commercially available ELISA kits according to the manufacturers instructions. At the end of the experiments, rat knee images were measured (mean of three readings per knee, Meinaite digital calliper, ShangHai, China) using a IVIS Lumina XRMS Series (PerkinElmer, America) (Esser, R. E., et al., Arthritis Rheum, 1995, 38(1): p. 129-38).

[2] = tested on: key enzymes involved in lipid metabolism in liver; experiment: Real-time PCR and Western blot of lipid metabolism enzymes in liver of AIA rats; type: in vivo, Sprague-Dawley (SD) rats
Procedure: Total RNA was isolated from the frozen liver of the AIA model using TRIzol® Reagent (Life technology, USA). mRNA was purified by binding to poly(dT) magnetic beads using Dynabeads® mRNA DIRECT™ Kit (Life technology, Norway) and reverse transcribed using SuperScript® III reverse transcriptase (Invitrogen, California, USA) as described by the manufacturer. Quantitative real-time PCR was performed using SYBR Green (Sigma-Aldrich, Louis, USA) on the ViiA™ 7 Real-Time PCR System (Applied Biosystems, FosterCity, USA). Quantitative RT-PCR analysis was performed using SYBR Green reagents and ViiA™ 7 Real-Time PCR System. Gene expression levels were calculated from cycle threshold (Ct) values and normalized with control gene GAPDH.
Liver tissue homogenates of AIA and MCD animal models were lysed in RIPA buffer (50 mM pH 7.4 Tris, 150 mM NaCl, 1% Triton X-100, 1% sodium deoxycholate, 0.1% SDS, sodium orthovanadate, sodium fluoride and EDTA) containing protease inhibitor cocktails (Roche Life Science, USA). Protein concentration was determined using the BCA protein assay kit (BIO-RAD, USA). Equal amounts of total protein were resolved using SDS-PAGE and transferred onto PVDF membranes (Millipore, Darmstadt, Germany). After incubation in a blocking solution containing with 5% (w/v) skim milk (Nestle Carnation, New Zealand) in TBST buffer (10 mM tris-buffered saline and 0.1% Tween20) for 1 h at room temperature and incubated with primary antibodies overnight at 4° C. The membranes were washed three times with 1×TBST solutions and incubated with the appropriate secondary antibodies at room temperature for 45 min, and subsequently visualized with an enhanced chemiluminescence detection kit (SuperSignal™ West Pico Chemiluminescent Substrate, Thermo Scientific, USA). β-actin was used as the loading control for the experimental data analysis.

AIA rats = experiment: Assessment of liver abnormality and lipid profile in AIA model; type: in vivo, Sprague-Dawley (SD) rats
Procedure: Serum ALT, AST, ALP, GGT and total bilirubin were measured by automatic biochemical analyzer (Toshiba Corporation, Tokyo, Japan). Lipids profile including TG, TC, HDL-C, LDL-C/vLDL-C and free fatty acids were measured in the serum. After animals were sacrificed, tissues of liver were fixed in 10% formalin solution, cleared in xylene, embedded in paraffin blocks from which 5 micron-thick sections were obtained. Sections were stained with H&E dye and examined for pathological changes under light microscope by a pathologist blind to the specimens.

[3] = tested on: MCD diet induced NASH mice; experiment: MCD diet induced NASH mice: body and liver weight, liver histology, serum and liver biomarkers; type: in vivo, C57Bl/6 mice; settings: for Ballooning (histological score) / Inflammation (histological score) / Steatosis (histological score): MCD diet induced NASH mice, n = 6-8
Procedure: Male wild-type (WT) mice C57Bl/6 were fed either MCS chow diet (Trophic Animal Feed High-tech Co., Ltd, China 20, #TP 3005GS); MCD diet (Trophic Animal Feed High-tech Co., Ltd, China, #TP 3005G) for 8 weeks. Animals were randomly divided into four groups (n=10): 1) controls, fed a standard control MCS diet; 2) […] fed a high-fat MCD diet; 3) rats fed the MCD diet treated with Silybin (150 mg/kg, oral) and 4) rats fed the MCD diet treated with Silybin (300 mg/kg, oral). Silybin was dissolved with solvent of 35% PEG400: 15% Cremophor EL: 5% ethanol: 45% saline. Body weight was intermittently monitored during the diet-induction period and every two or three days during the intervention period.
At the end of the 8 weeks, mice were sacrificed under ether anesthesia. The liver were immediately removed and weighed. A large portion of liver was snap-frozen in the liquid N2 with remaining tissue was fixed in 10% buffer formalin, processed and embedded in paraffin for histological examination after H&E staining. For evaluation of steatohepatitis, the level of ALT, AST, TG, and TC were determined according to manufacturer's instructions with commercial kits. Moreover, histological assessment and scoring according to standardized criteria were carried out by a pathologist blinded to the study (Kleiner, D. E., et al., Hepatology, 2005, 41(6): p. 1313-21). The cytokines levels in serum were measured using commercially available ELISA kits including TNF-α, and IL-6 as well as SOD.

[4] = MCD diet NASH mice, versus vehicle treated MCD diet model group

COc1cc([C@H]2Oc3cc([C@H]4Oc5cc(O)cc(O)c5C(=O)[C@@H]4O)ccc3O[C@@H]2CO)ccc1O (stereo in doubt) [Silybin]
serum level of IL-1β [1]: significant decrease | serum level of MMP-9 [1]: significant decrease | serum level of PGE2 [1]: significant decrease | serum level of TIMP-1 [1]: significant decrease | serum level of TNF-α [1]: significant decrease | expression of aP2 in the liver ([2]; AIA rats liver): reduced | mRNA and/or protein expression of LPL, CYP7A1, and SREBP1 in liver ([2]; AIA rats liver): greatly repressed | overexpression of SREBP1 ([2]; AIA rats liver): not modulated | increased mRNA levels of hepatic lipogenesis genes (SREBP1, LXR, FXR) ([2]; AIA rats liver, real-time PCR): attenuated | changes of key lipogenic enzyme in both gene and protein levels ([2]; AIA rats liver, real-time PCR and Western blot): ameliorated changes | mRNA level of LPL in liver ([2]; AIA rats, real-time PCR, increase in the AIA model group): reversed | histopathological assessment of liver tissue (AIA rats; H&E liver sections): preserved the normal architecture of hepatocytes with light congestion of central vein | dyslipidemia (serum lipid profile) (AIA rats; Silybin 200 mg/kg): successfully improved | ALP level (AIA rats; Silybin 200 mg/kg, P<0.001): markedly reduced | AST level (AIA rats; Silybin 200 mg/kg, P<0.05): markedly reduced | body weight ([3]; MCD diet NASH mice, Silybin 300 mg/kg): no effect | liver/body weight ratio ([3]; MCD diet NASH mice, Silybin 300 mg/kg, P<0.05): moderate decrease | scores of steatosis, inflammation and ballooning ([3]; MCD diet NASH mice, Silybin treated versus MCD diet group, P<0.01): lower scores | cytokines levels [3, 4]: significantly restored | lipid profiles [3, 4]: significantly restored | oxidative stress levels [3, 4]: significantly restored | serum transaminase [3, 4]: significantly restored | Ballooning (histological score) ([3]; Silybin 150 mg/kg oral): 0.96 ± 0.04 | Inflammation (histological score) ([3]; Silybin 150 mg/kg oral): 0.92 ± 0.10 | Steatosis (histological score) ([3]; Silybin 150 mg/kg oral): 1.00 ± 0 | Ballooning (histological score) ([3]; Silybin 300 mg/kg oral): 0.83 ± 0.09 | Inflammation (histological score) ([3]; Silybin 300 mg/kg oral): 0.88 ± 0.12 | Steatosis (histological score) ([3]; Silybin 300 mg/kg oral): 0.92 ± 0.13
